Assay results reported in patent US10087165B2, “Fluoroquinolones and use thereof to treat bacterial infections” (UNIVERSITÉ PIERRE ET MARIE CURIE—PARIS 6 (UPMC), priority 2014, dated 2018).
≈ marks a conversion by molar mass, not a printed value. Read-outs that look alike come from different tables or passages of the source.

Assays:
[1] = test system: M. tuberculosis H37Rv strain; experiment: Minimal effective dosage in the murine TB model; assay type: in vivo, Balb/C/J female mice; set-up: Mice weight: unit not given here; details: for Mice weight / Spleen weight / Survival: No. death: Gavage; for Survival: No. death: 10 mice
Procedure: Four-week-old Balb/C/J female mice were infected intravenously with 10^6 CFU of M. tuberculosis H37Rv strain. On the day following the infection (D1), 10 mice were sacrificed to determine the exact baseline values of spleen weight and CFU counts in the lungs. The remaining mice were allocated to the following treatment groups: an untreated negative control group for survival monitoring, a positive control group treated for 1 month with isoniazid (INH) 25 mg/kg/d, […] test groups were treated with Quin18 and Quin19 at increasing dosages (25 mg/kg/d; 50 mg/kg/d; 100 mg/kg/d; 150 mg/kg/d) given by oral gavage, and two additional test groups were treated intravenously with Quin18 25 mg/kg/d and 100 mg/kg/d. All the groups contained 10 mice and were treated from D1 to D28, 5 days a week. The parameters used for assessing the severity of infection and the effectiveness of treatments were survival rate, spleen weight, gross lung lesions and CFU counts in the lungs.
The minimal effective dosage was defined as the minimal dosage able to prevent mortality of the mice, spleen enlargement and the occurrence of gross lung lesions. CFU counts were considered to be a more precise way of determining the dose-ranging efficacy of Quin18 and Quin19.
Survival rates between groups were plotted on a Kaplan-Meier curve and compared using the log-rank test.

[2] = target: M. tuberculosis DNA gyrase (Mycobacterium tuberculosis, UniProt P9WG45+P9WG47); experiment: biochemical
[3] = test system: M. tuberculosis H37Rv; experiment: microbe, parasite or virus in culture; assay type: cell-based; details: for MIC: Mycobacterium tuberculosis
[4] = assay type: physicochemical
Procedure: A solubility assay was performed on both Quin 18 and Quin 19 in appropriated vehicles for per os injection into mice to obtain a fine suspension at maximal concentration (MC) of each compound. The solubility of each compound in each vehicle was evaluated by observation of potential precipitate.

[5] = Acute toxicity in healthy female CD-1 mice after a single oral treatment; assay type: in vivo
Procedure: The aim of this study was to evaluate the acute toxicity of two new compounds (Quin 18 and Quin 19) in healthy female CD-1 after a single oral treatment at D0.
Toxicity of treatment was evaluated by monitoring of animals (general signs of pharmacologic and toxicity effects, morbidity, mortality and evident signs of toxicity, as well as twice-weekly monitoring for clinical signs and body weight) until the end of the experiment (D14). At the end of the experiment, animals were sacrificed and macroscopic autopsy was performed.
Mice of each group were administered by per os (PO) injection at 10 ml/kg according to the standard operating procedure No. TEC-078. The recommended volume for per os (PO) administration in mice is 10 ml/kg.
Morbidity, mortality and evident signs of toxicity of mice were considered daily from D0 until the end of the experiment (D14 or D15).
Monitoring of mice for detailed behavioral and clinical observations was performed twice a week from D0 until the end of the experiment (D14 or D15) according to the standard operating procedures No. TEC-192.
Body weight of mice was monitored at D1, D2 and then twice a week until the end of the experiment (D14 or D15) according to the standard operating procedures No. TEC-108. Weight loss was assessed against the starting weight of each mouse at D0.
During the course of the experiment, animals were sacrificed if any of the following occurs: • Signs of suffering (cachexia, weakening, difficulty to move or to eat), • Compound toxicity (hunching, convulsions), • 25% body weight loss on any day. Sacrifice of Animals
At D14 or D15, animals were be sacrificed by CO2 inhalation and a macroscopic autopsy was performed.

Chain of M. tuberculosis DNA gyrase (P9WG47 whole entry): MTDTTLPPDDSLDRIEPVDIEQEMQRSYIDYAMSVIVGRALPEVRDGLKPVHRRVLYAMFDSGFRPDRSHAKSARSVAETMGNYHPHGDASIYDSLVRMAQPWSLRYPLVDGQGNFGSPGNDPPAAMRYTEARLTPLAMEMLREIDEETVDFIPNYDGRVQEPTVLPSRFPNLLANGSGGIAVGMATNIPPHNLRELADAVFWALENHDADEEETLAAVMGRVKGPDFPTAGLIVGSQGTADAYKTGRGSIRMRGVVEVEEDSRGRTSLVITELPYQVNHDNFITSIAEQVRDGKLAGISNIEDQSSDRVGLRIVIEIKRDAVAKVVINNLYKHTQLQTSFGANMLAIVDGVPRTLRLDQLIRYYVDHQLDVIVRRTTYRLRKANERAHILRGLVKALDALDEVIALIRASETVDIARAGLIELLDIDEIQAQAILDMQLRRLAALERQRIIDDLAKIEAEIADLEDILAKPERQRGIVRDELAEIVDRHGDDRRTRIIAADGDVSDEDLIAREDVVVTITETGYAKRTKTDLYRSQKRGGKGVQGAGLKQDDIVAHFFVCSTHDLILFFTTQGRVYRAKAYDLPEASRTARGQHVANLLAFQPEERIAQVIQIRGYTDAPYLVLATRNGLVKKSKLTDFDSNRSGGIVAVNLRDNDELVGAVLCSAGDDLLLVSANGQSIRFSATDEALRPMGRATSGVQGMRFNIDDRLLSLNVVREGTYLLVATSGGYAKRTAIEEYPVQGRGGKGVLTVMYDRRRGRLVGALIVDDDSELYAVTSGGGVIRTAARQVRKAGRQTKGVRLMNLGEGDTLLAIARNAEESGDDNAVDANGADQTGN
Chain of M. tuberculosis DNA gyrase (P9WG45 whole entry): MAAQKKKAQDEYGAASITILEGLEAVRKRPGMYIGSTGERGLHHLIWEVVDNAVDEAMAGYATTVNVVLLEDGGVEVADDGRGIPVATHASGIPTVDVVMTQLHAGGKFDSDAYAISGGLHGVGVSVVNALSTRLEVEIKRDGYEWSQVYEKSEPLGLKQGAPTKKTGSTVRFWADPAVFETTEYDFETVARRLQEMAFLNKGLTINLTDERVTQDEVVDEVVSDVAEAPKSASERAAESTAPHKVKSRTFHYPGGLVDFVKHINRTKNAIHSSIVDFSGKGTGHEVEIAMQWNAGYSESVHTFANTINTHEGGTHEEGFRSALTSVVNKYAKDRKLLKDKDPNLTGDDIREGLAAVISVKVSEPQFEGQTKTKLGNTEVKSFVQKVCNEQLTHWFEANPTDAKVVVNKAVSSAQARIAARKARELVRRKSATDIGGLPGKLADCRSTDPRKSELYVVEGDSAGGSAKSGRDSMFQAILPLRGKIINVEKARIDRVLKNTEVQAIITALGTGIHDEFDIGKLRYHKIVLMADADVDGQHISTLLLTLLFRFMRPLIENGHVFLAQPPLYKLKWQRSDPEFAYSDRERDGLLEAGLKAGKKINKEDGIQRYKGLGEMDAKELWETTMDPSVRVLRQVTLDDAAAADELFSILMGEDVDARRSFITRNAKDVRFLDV

CCCCCCCCCCN1CCN(c2c(F)cc3c(=O)c(C(=O)O)cn(C4CC4)c3c2OC)CC1 [Quin 19, 1-cyclopropyl-7-(4-decylpiperazin-1-yl)-6-fluoro-8-methoxy-4-oxo-1,4-dihydroquinoline-3-carboxylic acid]
Mice weight ([1]; 25 mg/kg/j): 19.3 ± 2.6 | Spleen weight ([1]; 25 mg/kg/j): 332 ± 141.1 mg | Survival: No. death ([1]; 25 mg/kg/j, D1 to D28, 5 days a week): 1 | Mice weight ([1]; 50 mg/kg/j): 18 ± 3.4 | Spleen weight ([1]; 50 mg/kg/j): 305.6 ± 181.5 mg | Survival: No. death ([1]; 50 mg/kg/j): 2 | Mice weight ([1]; 100 mg/kg/j): 20.2 ± 1.3 | Spleen weight ([1]; 100 mg/kg/j): 253 ± 127.2 mg | Survival: No. death ([1]; 100 mg/kg/j): 0 | Mice weight ([1]; 150 mg/kg/j): 20.7 ± 0.8 | Spleen weight ([1]; 150 mg/kg/j): 222 ± 106.2 mg | Survival: No. death ([1]; 150 mg/kg/j): 0 | Efficacy in a mouse model of tuberculosis (in words) ([1]; given orally): outstanding efficacy | Survival compared with untreated group (in words) ([1]; whatever the dosage (25, 50, 100 and 150 mg/kg/d) and the administration route): statistically superior to untreated group | IC50 [2]: 150 µM | antibacterial activity against wild-type M. tuberculosis strain (in words) ([3]; H37Rv): high antibacterial activity | MIC ([3]; H37RV, Table 3, read-out: MIC M. tuberculosis H37Rv): < 0.12 µM | MIC ([3]; H37Rv, Table 2, read-out: MIC (M. tuberculosis) WT): 0.25 µM (≈ 0.125 µg/mL) | Excipient allowing the best solubilisation [4]: corn oil | Loss of body weight (in words) ([5]; Group B1: 100 mg/kg PO Q1Dx1): did not exhibited any loss of body weight | Tolerance (in words) ([5]; Group B1: 100 mg/kg PO Q1Dx1, corn oil, with sonication): well tolerated | Mean body weight (MBW) ([5]; Group B1: 100 mg/kg PO Q1Dx1, with sonication, D1): 29.73 ± 0.83 g | Mean body weight (MBW) ([5]; Group B1: 100 mg/kg PO Q1Dx1, with sonication, D2): 29.9 ± 0.2 g | Mean body weight (MBW) ([5]; Group B1: 100 mg/kg PO Q1Dx1, with sonication, D3): 30.23 ± 0.4 g | Mean body weight (MBW) ([5]; Group B1: 100 mg/kg PO Q1Dx1, with sonication, D4): 30.5 ± 0.98 g | Mean body weight (MBW) ([5]; Group B1: 100 mg/kg PO Q1Dx1, with sonication, D7): 31.2 ± 0.1 g | Mean body weight (MBW) ([5]; Group B1: 100 mg/kg PO Q1Dx1, with sonication, D11): 32.17 ± 1.36 g | Mean body weight (MBW) ([5]; Group B1: 100 mg/kg PO Q1Dx1, with sonication, D14): 31.4 ± 0.44 g | Macroscopic autopsy: Observations ([5]; Group B1: 100 mg/kg PO Q1Dx1, *one mouse had air bubble in the caecum): NTR* | Mean body weight (MBW) ([5]; Group B1: corn oil, 10 mg/ml with sonication, 100 mg/kg PO Q1Dx1, D0, 100 mg/kg): 31.67 ± 2.25 g | Loss of body weight (in words) ([5]; Group B2: 200 mg/kg PO Q1Dx1): did not exhibited any loss of body weight | Tolerance (in words) ([5]; Group B2: 200 mg/kg PO Q1Dx1, corn oil, with sonication): well tolerated | Mean body weight (MBW) ([5]; Group B2: 200 mg/kg PO Q1Dx1, with sonication, D1): 30.97 ± 0.4 g | Mean body weight (MBW) ([5]; Group B2: 200 mg/kg PO Q1Dx1, with sonication, D2): 30.93 ± 0.25 g | Mean body weight (MBW) ([5]; Group B2: 200 mg/kg PO Q1Dx1, with sonication, D3): 30.3 ± 0.85 g | Mean body weight (MBW) ([5]; Group B2: 200 mg/kg PO Q1Dx1, with sonication, D7): 31.6 ± 1.97 g | Mean body weight (MBW) ([5]; Group B2: 200 mg/kg PO Q1Dx1, with sonication, D10): 32.1 ± 3.2 g | Mean body weight (MBW) ([5]; Group B2: 200 mg/kg PO Q1Dx1, with sonication, D14): 31.9 ± 1.15 g | Macroscopic autopsy: Observations ([5]; Group B2: 200 mg/kg PO Q1Dx1, sacrifice at end of study): NTR | Mean body weight (MBW) ([5]; Group B2: corn oil, 20 mg/ml with sonication, 200 mg/kg PO Q1Dx1, D0, 200 mg/kg): 30.67 ± 0.21 g | Loss of body weight (in words) ([5]; Group B3: 200 mg/kg PO Q1Dx1): did not exhibited any loss of body weight | Tolerance (in words) ([5]; Group B3: 200 mg/kg PO Q1Dx1, corn oil, without sonication): well tolerated | Mean body weight (MBW) ([5]; Group B3: 200 mg/kg PO Q1Dx1, without sonication, D1): 32.73 ± 1.46 g | Mean body weight (MBW) ([5]; Group B3: 200 mg/kg PO Q1Dx1, without sonication, D2): 32.5 ± 0.62 g | Mean body weight (MBW) ([5]; Group B3: 200 mg/kg PO Q1Dx1, without sonication, D4): 31.73 ± 0.9 g | Mean body weight (MBW) ([5]; Group B3: 200 mg/kg PO Q1Dx1, without sonication, D7): 32.2 ± 0.5 g | Mean body weight (MBW) ([5]; Group B3: 200 mg/kg PO Q1Dx1, without sonication, D11): 34.1 ± 1.51 g | Mean body weight (MBW) ([5]; Group B3: 200 mg/kg PO Q1Dx1, without sonication, D15): 35.43 ± 1.99 g | Macroscopic autopsy: Observations ([5]; Group B3: 200 mg/kg PO Q1Dx1, sacrifice at end of study): NTR | Mean body weight (MBW) ([5]; Group B3: corn oil, 20 mg/ml without sonication, 200 mg/kg PO Q1Dx1, D0, 200 mg/kg): 33.6 ± 2.11 g | Loss of body weight (in words) ([5]; Group B4: 400 mg/kg PO 2Q1Dx1): did not exhibited any loss of body weight | Tolerance (in words) ([5]; Group B4: 400 mg/kg PO 2Q1Dx1, corn oil, without sonication): well tolerated | Mean body weight (MBW) ([5]; Group B4: 400 mg/kg PO 2Q1Dx1, without sonication, D1): 30.47 ± 2.2 g | Mean body weight (MBW) ([5]; Group B4: 400 mg/kg PO 2Q1Dx1, without sonication, D2): 30.47 ± 1.3 g | Mean body weight (MBW) ([5]; Group B4: 400 mg/kg PO 2Q1Dx1, without sonication, D5): 31.03 ± 1.55 g | Mean body weight (MBW) ([5]; Group B4: 400 mg/kg PO 2Q1Dx1, without sonication, D9): 31.77 ± 2.32 g | Mean body weight (MBW) ([5]; Group B4: 400 mg/kg PO 2Q1Dx1, without sonication, D13): 31.7 ± 1.18 g | Mean body weight (MBW) ([5]; Group B4: 400 mg/kg PO 2Q1Dx1, without sonication, D14): 32.53 ± 1 g | Macroscopic autopsy: Observations ([5]; Group B4: 400 mg/kg PO 2Q1Dx1, sacrifice at end of study): NTR | Mean body weight (MBW) ([5]; Group B4: corn oil, 20 mg/ml without sonication, 400 mg/kg PO 2Q1Dx1 (2 hours between the 2 injections), D0, 400 mg/kg): 31.03 ± 1.86 g | Autopsy, macroscopic observations (in words) ([5]; all treated groups): No particular sign was observed | Dose up to which well tolerated (maximal solubility) ([5]; in corn oil, PO, female mice): up to 400 mg/kg | Signs of toxicity at the dose levels tested (in words) ([5]; mice): no signs of toxicity
